Assays:
[1] = test system: T1, surface MR1*01 on C1R.MR1 cells; assay: quantification of cell surface MR1 by flow cytometry, C1R.MR1 cells; assay type: cell-based, human; conditions: C1R.MR1 cells, 3 h, 1–200 µM, 8F2F9 antibody
T1 construct: expressed in transfected cells; host or cells: C1R B lymphoblastoid cells transduced with MR1*01

SKW-3-DGB129 line = assay: SKW-3 reporter T cell activation (CD69), coculture with C1R.MR1; assay type: cell-based; conditions: SKW-3-DGB129 cocultured with C1R.MR1
Method: (§1) Given the intracellular MR1 retention induced by the RF catabolites, we anticipated that these ligands could influence the activity of MR1-reactive T cells. First, we utilized a system whereby reporter SKW-3 T cell lines were cocultured with C1R.MR1 APCs and activation was determined by CD69 expression. […] In contrast, SKW-3-MBV28 cells were inhibited by alloxazine but activated by lumichrome (Fig. S3, D–F). Two MR1-restricted TRAV1-2^−ve SKW-3 T cell lines were also tested.
(§2) C1R.MR1 cells (1 × 10^5) were initially stained with CTV (Thermo Fisher Scientific) for 15 min and then incubated with RF catabolites for 20 h. […] Cells were subsequently stained with PE-Cy7-conjugated anti-CD69 (1:100; BD Biosciences) and PE-labeled anti-MR1 (1:100, clone 26.5; BD Biosciences), before analysis on a LSRFortessa (BD Biosciences) flow cytometer. Activation of the SKW-3 cells was reflected by the cell surface CD69 expression.

[2] = test system: SKW-3 cells expressing MAIT TCR MBV28; assay: as above; assay type: cell-based; conditions: SKW-3-MBV28, in the presence of 5-OP-RU
Method: as §1, §2

SKW-3-MAV36 line = assay: as above; assay type: cell-based; conditions: SKW-3-MAV36, in the presence of 5-OP-RU
Method: as §1, §2

[3] = test system: SKW-3 cells expressing MAIT TCR AF-7; assay: as above; assay type: cell-based
Method: as §1, §2

[4] = test system: T2, folded MR1 in C1R.MR1 cells; assay: intracellular total folded MR1 by flow cytometry (8F2.F9); assay type: cell-based, human; conditions: 16 h, 100 µM
T2 construct: expressed in transfected cells; host or cells: C1R B lymphoblastoid cells transduced with MR1*01

soluble WT MR1 = assay: fluorescence-based thermal shift (thermostability) assay of MR1–ligand complexes; assay type: binding, human; conditions: MR1 refolded with the ligand, SYPRO Orange, 28 to 95°C, three independent experiments
[5] = test system: T3, human MR1–β2-microglobulin (β2m) complex; assay: refolding of recombinant MR1-β2m with ligand; assay type: binding; conditions: ligand added to refolding buffer; gel filtration and SDS-PAGE
T3 construct: plasmids encoding for the extracellular domains of MR1, β2m, and the AF-7 TCRα and TCRβ chains; made in house

[6] = test system: T4, MR1 on PBMC-derived B lymphocytes; assay: MR1 surface expression on primary B cells; assay type: cell-based; conditions: primary human B cells, 16 h, highest doses, with or without 5-OP-RU
T4 construct: we also measured MR1 on the surface of cells expressing wild-type levels of MR1; endogenous in cells; host or cells: PBMC-derived B lymphocytes from healthy human donors

hMR1 protein = target: T5, hMR1 protein (Homo sapiens, UniProt Q95460); assay: fluorescence polarization–based cell-free assay, competition with JYM20 for MR1 binding; conditions: 50% inhibition of 10 nM JYM20 binding to 100 nM empty hMR1, 37°C; three independent experiments in triplicate
T5 construct: plasmids encoding for the extracellular domains of MR1, β2m, and the AF-7 TCRα and TCRβ chains; made in house; host or cells: Escherichia coli BL21(DE3)

[7] = test system: T6, MR1^K43A on C1R.MR1^K43A cells; assay: cell surface MR1^K43A by flow cytometry; assay type: cell-based, human; conditions: 3 h
T6 construct: expressed in transfected cells; host or cells: C1R cells overexpressing MR1^K43A
Description: We then tested the effect of the RF catabolites on the expression of two mutant versions of MR1 termed MR1^R9H ([Howson et al., 2020]) and MR1^K43A ([Reantragoon et al., 2013]). First, we tested the MR1^R9H mutant ([Howson et al., 2020]), which represents a rare, natural human polymorph. […] We used C1R.MR1^R9H cells, which are produced by stable transduction of wild-type C1R cells, which express low levels of wild-type MR1, with a vector expressing the MR1^R9H mutant ([Howson et al., 2020]). […] When C1R. […] Next, we sought to understand how the previously characterized K43A mutation affects ligand binding.
The level of MR1 expressed on the cell surface was measured after the exposure to the investigated ligands as previously described ([Awad et al., 2020a]; [Wang et al., 2022a]). C1R Ag-presenting B lymphocytes overexpressing MR1*01 (C1R.MR1), MR1^K43A mutant (C1R.MR1^K43A), MR1^R9H mutant (C1R.MR1^R9H), or HLA-A*02:01 (C1R-A2), in addition to the monocytic THP-1-MR1 cells, were used in this study. 2 × 10^5 cells were incubated with RF catabolites for 3 or 16 h at 37°C and 5% CO2 in 200 μl folate-free RPMI 1640 medium from Gibco (Cat. No. 11875-093) fortified with 10% fetal bovine serum, sodium pyruvate (1 mmol/L), HEPES buffer (15 mmol/L), pH 7.2–7.5, 2% penicillin (100 U/ml), streptomycin ([…]), GlutaMAX (2 mmol/L), nonessential amino acids (0.1 mmol/L) (all from Thermo Fisher Scientific, Life Technologies), and 2-mercaptoethanol ([…], Sigma-Aldrich) (RF-10). After incubation, the cells were first stained with Zombie Aqua Fixable Viability Kit from BioLegend (Cat. No. 423102) and then incubated with biotinylated 8F2F9 αMR1 antibody for 30 min on ice. The unbound antibody was then washed off with 2% fetal bovine serum/PBS (called 2% FACS hereafter) buffer. The cells were finally incubated with PE-conjugated streptavidin (30 μg/ml; BioLegend) and then washed with 2% FACS buffer. The PE fluorescence intensity reflects the surface MR1 level. The data were acquired with LSRFortessa X-20 (BD Biosciences) and Diva software (BD Biosciences) and analyzed using FlowJo software (BD Biosciences).

MAIT cells from PBMCs = assay: primary MAIT cell activation in PBMCs (CD69, TNF); assay type: cell-based, human; conditions: 16-h incubation
[8] = test system: CD3^+ MR1-5-OP-RU tetramer^+ MAIT cells; assay: MAIT cell proliferation in CTV-labeled PBMCs; assay type: cell-based, human; conditions: 7-day culture, 5-OP-RU 10 µM, others 100 µM

T5 sequence (Q95460 23-302 limits assumed): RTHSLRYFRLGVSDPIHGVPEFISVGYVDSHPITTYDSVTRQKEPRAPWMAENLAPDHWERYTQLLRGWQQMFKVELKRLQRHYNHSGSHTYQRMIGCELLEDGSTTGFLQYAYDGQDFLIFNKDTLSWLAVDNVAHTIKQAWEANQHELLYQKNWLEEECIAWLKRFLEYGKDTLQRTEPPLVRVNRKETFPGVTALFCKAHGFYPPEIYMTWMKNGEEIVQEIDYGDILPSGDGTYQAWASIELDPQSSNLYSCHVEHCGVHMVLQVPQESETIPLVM
T5 sequence (P61769 21-119 partner): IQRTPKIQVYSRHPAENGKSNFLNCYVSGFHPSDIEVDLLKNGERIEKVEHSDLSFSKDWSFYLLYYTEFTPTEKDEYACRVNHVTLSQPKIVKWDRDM

| Structure (SMILES) | MR1 cell surface expression [1] | reactivity of MR1 autoreactive, nucleobase-adduct reactive line (CD69) (SKW-3-DGB129 line) | reactivity to 5-OP-RU (CD69) [2] | reactivity to 5-OP-RU (CD69) (SKW-3-MAV36 line) | reactivity to 5-OP-RU (CD69) ([3]; SKW-3-AF-7, in the presence of 1 nM 5-OP-RU) | reactivity to RL-7-Me (CD69) ([3]; SKW-3-AF-7, in the presence of 100 nM RL-7-Me) | total level of folded MR1 (intracellular staining with 8F2.F9) [4] | Tm50 (half-maximum melting temperature), Mean ± SD (soluble WT MR1; listed as MR1-Alloxazine) [°C] | folding of the MR1-β2m cocomplex in solution [5] | MR1 surface expression [6] | IC50 (hMR1 protein) [µM] | MR1^K43A at the cell surface [7] | Tm50 (half-maximum melting temperature), Mean ± SD (soluble WT MR1) [°C] | CD69 upregulation on MAIT cells, ligand alone (MAIT cells from PBMCs) | MAIT cell proliferation [8] |
| --- | --- | --- | --- | --- | --- | --- | --- | --- | --- | --- | --- | --- | --- | --- | --- |
| O=c1nc2[nH]c3ccccc3nc-2c(=O)[nH]1 [Alloxazine, alloxazine] | reduced MR1 cell surface | inhibited | inhibited | inhibited | not altered | inhibited in a dose-dependent manner | increased the total level of folded MR1 | 50.73 ± 0.45 | facilitated the correct folding of the MR1-β2m cocomplex | reduced MR1 surface expression | 13.4 | increased MR1^K43A at the cell surface |  |  |  |
| Cc1cc2nc3c(=O)[nH]c(=O)nc-3n(CC=O)c2cc1C [FMF, 10-formylmethylflavin] |  |  |  |  |  |  | increased the total level of folded MR1 |  | facilitated the correct folding of the MR1-β2m cocomplex |  | 53.6 |  |  |  |  |
| CC(=O)C=Nc1c(NCC(O)C(O)C(O)CO)[nH]c(=O)[nH]c1=O [5-OP-RU, 5-(2-oxopropylideneamino)-6-D-ribitylaminouracil, reference compound] |  |  |  |  |  |  |  |  |  |  |  |  | 58.14 ± 0.60 | induced robust CD69 upregulation | significantly proliferated |

From article PMC12650265 (The Journal of Experimental Medicine, 2025)
